Reference: PubChem BioAssay (NCI)
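Growth conditions: 96-well plates. Treatment: test compound, 48 hours, 5 concentrations. Analysis: linear interpolation between bracketing concentrations; unreached endpoints set to highest concentration. TGI: concentration producing complete growth inhibition.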

Key:
Assay in all cases: DTP human tumour cell line panel, 48 h
786-0 renal = test system: 786-0 renal
A549 NSCLC = test system: A549 NSCLC
ACHN renal = test system: ACHN renal
BT-549 breast = test system: BT-549 breast
CCRF-CEM leukemia = test system: CCRF-CEM leukemia
COLO 205 colon = test system: COLO 205 colon
DU-145 prostate = test system: DU-145 prostate
EKVX NSCLC = test system: EKVX NSCLC
HCC-2998 colon = test system: HCC-2998 colon
HCT-116 colon = test system: HCT-116 colon
HCT-15 colon = test system: HCT-15 colon
HL-60(TB) leukemia = test system: HL-60(TB) leukemia
HOP-62 NSCLC = test system: HOP-62 NSCLC
HOP-92 NSCLC = test system: HOP-92 NSCLC
HS 578T breast = test system: HS 578T breast
HT29 colon = test system: HT29 colon
IGROV1 ovarian = test system: IGROV1 ovarian
K-562 leukemia = test system: K-562 leukemia
KM12 colon = test system: KM12 colon
LOX IMVI melanoma = test system: LOX IMVI melanoma
M14 melanoma = test system: M14 melanoma
MALME-3M melanoma = test system: MALME-3M melanoma
MCF7 breast = test system: MCF7 breast
MDA-MB-231 breast = test system: MDA-MB-231 breast
MDA-MB-435 = test system: MDA-MB-435
MDA-N = test system: MDA-N
MOLT-4 leukemia = test system: MOLT-4 leukemia
NCI-H226 lung = test system: NCI-H226 lung
NCI-H23 lung = test system: NCI-H23 lung
NCI-H460 lung = test system: NCI-H460 lung
NCI-H522 lung = test system: NCI-H522 lung
NCI/ADR-RES ovarian = test system: NCI/ADR-RES ovarian
OVCAR-3 ovarian = test system: OVCAR-3 ovarian
OVCAR-4 ovarian = test system: OVCAR-4 ovarian
OVCAR-5 ovarian = test system: OVCAR-5 ovarian
OVCAR-8 ovarian = test system: OVCAR-8 ovarian
PC-3 prostate = test system: PC-3 prostate
RPMI-8226 leukemia = test system: RPMI-8226 leukemia
SF-268 CNS = test system: SF-268 CNS
SF-295 CNS = test system: SF-295 CNS
SK-MEL-2 melanoma = test system: SK-MEL-2 melanoma
SK-MEL-28 melanoma = test system: SK-MEL-28 melanoma
SK-MEL-5 melanoma = test system: SK-MEL-5 melanoma
SK-OV-3 ovarian = test system: SK-OV-3 ovarian
SN12C renal = test system: SN12C renal
SNB-19 CNS = test system: SNB-19 CNS
SNB-75 CNS = test system: SNB-75 CNS
SW-620 colon = test system: SW-620 colon
T-47D breast = test system: T-47D breast
TK-10 renal = test system: TK-10 renal
U251 CNS = test system: U251 CNS
UACC-62 melanoma = test system: UACC-62 melanoma
UO-31 renal = test system: UO-31 renal
CAKI-1 renal = test system: CAKI-1 renal
RXF 393 renal = test system: RXF 393 renal
SF-539 CNS = test system: SF-539 CNS
UACC-257 melanoma = test system: UACC-257 melanoma

c1cc(-c2ccc(-c3ccc(-c4ccc(-c5cccc6nsnc56)[nH]4)c4nsnc34)[nH]2)c2nsnc2c1
TGI (786-0 renal): > 100 µM
TGI (A549 NSCLC): > 100 µM
TGI (ACHN renal): > 100 µM
TGI (BT-549 breast): > 100 µM
TGI (CCRF-CEM leukemia): > 100 µM
TGI (COLO 205 colon): > 100 µM
TGI (DU-145 prostate): > 100 µM
TGI (EKVX NSCLC): > 100 µM
TGI (HCC-2998 colon): > 100 µM
TGI (HCT-116 colon): > 100 µM
TGI (HCT-15 colon): > 100 µM
TGI (HL-60(TB) leukemia): 30.1 µM
TGI (HOP-62 NSCLC): > 100 µM
TGI (HOP-92 NSCLC): > 100 µM
TGI (HS 578T breast): > 100 µM
TGI (HT29 colon): > 100 µM
TGI (IGROV1 ovarian): > 100 µM
TGI (K-562 leukemia): > 100 µM
TGI (KM12 colon): > 100 µM
TGI (LOX IMVI melanoma): > 100 µM
TGI (M14 melanoma): > 100 µM
TGI (MALME-3M melanoma): > 100 µM
TGI (MCF7 breast): > 100 µM
TGI (MDA-MB-231 breast): > 100 µM
TGI (MDA-MB-435): > 100 µM
TGI (MDA-N): > 100 µM
TGI (MOLT-4 leukemia): > 100 µM
TGI (NCI-H226 lung): > 100 µM
TGI (NCI-H23 lung): > 100 µM
TGI (NCI-H460 lung): > 100 µM
TGI (NCI-H522 lung): > 100 µM
TGI (NCI/ADR-RES ovarian): > 100 µM
TGI (OVCAR-3 ovarian): > 100 µM
TGI (OVCAR-4 ovarian): > 100 µM
TGI (OVCAR-5 ovarian): > 100 µM
TGI (OVCAR-8 ovarian): > 100 µM
TGI (PC-3 prostate): > 100 µM
TGI (RPMI-8226 leukemia): > 100 µM
TGI (SF-268 CNS): > 100 µM
TGI (SF-295 CNS): > 100 µM
TGI (SK-MEL-2 melanoma): > 100 µM
TGI (SK-MEL-28 melanoma): > 100 µM
TGI (SK-MEL-5 melanoma): > 100 µM
TGI (SK-OV-3 ovarian): > 100 µM
TGI (SN12C renal): > 100 µM
TGI (SNB-19 CNS): > 100 µM
TGI (SNB-75 CNS): > 100 µM
TGI (SW-620 colon): > 100 µM
TGI (T-47D breast): > 100 µM
TGI (TK-10 renal): > 100 µM
TGI (U251 CNS): > 100 µM
TGI (UACC-62 melanoma): > 100 µM
TGI (UO-31 renal): > 100 µM

CCN1C(=O)C(=C/C=C/c2ccc(OC)cc2)C(=O)N(CC)C1=S
TGI (786-0 renal): 32.6 µM
TGI (A549 NSCLC): > 100 µM
TGI (ACHN renal): 31.5 µM
TGI (BT-549 breast): 90.1 µM
TGI (CAKI-1 renal): 47.2 µM
TGI (CCRF-CEM leukemia): 75.3 µM
TGI (COLO 205 colon): 36 µM
TGI (DU-145 prostate): 34 µM
TGI (EKVX NSCLC): 78.9 µM
TGI (HCC-2998 colon): > 100 µM
TGI (HCT-116 colon): 31.8 µM
TGI (HCT-15 colon): 36.4 µM
TGI (HL-60(TB) leukemia): > 100 µM
TGI (HOP-62 NSCLC): 36.1 µM
TGI (HOP-92 NSCLC): 28.9 µM
TGI (HS 578T breast): > 100 µM
TGI (HT29 colon): 58.9 µM
TGI (IGROV1 ovarian): 35.7 µM
TGI (K-562 leukemia): > 100 µM
TGI (KM12 colon): 40.5 µM
TGI (LOX IMVI melanoma): 32.6 µM
TGI (M14 melanoma): 52.5 µM
TGI (MALME-3M melanoma): 28 µM
TGI (MCF7 breast): > 100 µM
TGI (MDA-MB-231 breast): 37.2 µM
TGI (MDA-MB-435): 43.6 µM
TGI (MDA-N): 36.6 µM
TGI (MOLT-4 leukemia): > 100 µM
TGI (NCI-H226 lung): > 100 µM
TGI (NCI-H23 lung): > 100 µM
TGI (NCI-H460 lung): > 100 µM
TGI (NCI/ADR-RES ovarian): 37.4 µM
TGI (OVCAR-3 ovarian): 31.2 µM
TGI (OVCAR-4 ovarian): > 100 µM
TGI (OVCAR-5 ovarian): > 100 µM
TGI (OVCAR-8 ovarian): 44.7 µM
TGI (PC-3 prostate): 37.3 µM
TGI (RPMI-8226 leukemia): > 100 µM
TGI (RXF 393 renal): 39.8 µM
TGI (SF-268 CNS): 88.3 µM
TGI (SF-295 CNS): > 100 µM
TGI (SF-539 CNS): 40.4 µM
TGI (SK-MEL-2 melanoma): > 100 µM
TGI (SK-MEL-5 melanoma): 71.7 µM
TGI (SK-OV-3 ovarian): 57.8 µM
TGI (SN12C renal): 35.4 µM
TGI (SNB-19 CNS): > 100 µM
TGI (SW-620 colon): 44 µM
TGI (T-47D breast): > 100 µM
TGI (TK-10 renal): 31.8 µM
TGI (U251 CNS): 36.6 µM
TGI (UACC-257 melanoma): 30.3 µM
TGI (UACC-62 melanoma): 31.7 µM
TGI (UO-31 renal): > 100 µM

O=C1c2ccccc2C(=Nc2ccc3ccccc3c2)C1(C1=C(c2ccccc2)C(=Nc2ccc3ccccc3c2)c2ccccc21)c1ccccc1 (stereo not drawn)
TGI (786-0 renal): > 100 µM
TGI (A549 NSCLC): > 100 µM
TGI (ACHN renal): 15 µM
TGI (BT-549 breast): 73.3 µM
TGI (CAKI-1 renal): > 100 µM
TGI (CCRF-CEM leukemia): > 100 µM
TGI (COLO 205 colon): > 100 µM
TGI (DU-145 prostate): > 100 µM
TGI (EKVX NSCLC): > 100 µM
TGI (HCC-2998 colon): > 63.4 µM
TGI (HCT-116 colon): > 100 µM
TGI (HCT-15 colon): > 23.8 µM
TGI (HL-60(TB) leukemia): > 29 µM
TGI (HOP-62 NSCLC): > 100 µM
TGI (HOP-92 NSCLC): > 100 µM
TGI (HS 578T breast): > 100 µM
TGI (HT29 colon): > 100 µM
TGI (IGROV1 ovarian): > 100 µM
TGI (K-562 leukemia): > 43.5 µM
TGI (KM12 colon): > 42.6 µM
TGI (LOX IMVI melanoma): > 100 µM
TGI (M14 melanoma): > 86.8 µM
TGI (MCF7 breast): > 65.6 µM
TGI (MDA-MB-231 breast): > 100 µM
TGI (MDA-MB-435): > 87.3 µM
TGI (MDA-N): > 59.1 µM
TGI (MOLT-4 leukemia): 7.81 µM
TGI (NCI-H226 lung): > 44.4 µM
TGI (NCI-H23 lung): > 31.3 µM
TGI (NCI-H460 lung): > 100 µM
TGI (NCI-H522 lung): > 100 µM
TGI (NCI/ADR-RES ovarian): > 100 µM
TGI (OVCAR-3 ovarian): > 100 µM
TGI (OVCAR-4 ovarian): > 100 µM
TGI (OVCAR-5 ovarian): > 100 µM
TGI (OVCAR-8 ovarian): > 94.1 µM
TGI (PC-3 prostate): > 100 µM
TGI (RPMI-8226 leukemia): 18.2 µM
TGI (RXF 393 renal): > 100 µM
TGI (SF-268 CNS): > 100 µM
TGI (SF-295 CNS): > 100 µM
TGI (SF-539 CNS): > 100 µM
TGI (SK-MEL-2 melanoma): > 69.5 µM
TGI (SK-MEL-28 melanoma): > 100 µM
TGI (SK-MEL-5 melanoma): 7.47 µM
TGI (SK-OV-3 ovarian): > 100 µM
TGI (SN12C renal): > 100 µM
TGI (SNB-19 CNS): > 100 µM
TGI (SNB-75 CNS): > 70.4 µM
TGI (SW-620 colon): > 100 µM
TGI (T-47D breast): > 100 µM
TGI (TK-10 renal): > 100 µM
TGI (U251 CNS): > 100 µM
TGI (UACC-257 melanoma): > 100 µM
TGI (UACC-62 melanoma): > 53.5 µM
TGI (UO-31 renal): 37 µM
